Reference: paper PMC9586283 (Proceedings of the National Academy of Sciences of the …, 2022)

Experiments:
wild-type Mlh1-Pms1 = experiment: Mlh1-Pms1 endonuclease assay; type: biochemical, S. cerevisiae; settings: 7.5 nM PCNA, 30 nM RFC-Δ1N, 35 nM Mlh1-Pms1, 1 mM MnSO4, 20 mM Tris (pH 7.5), 0.5 mM ATP, 100 ng supercoiled pRS425, 30 °C, 30 min, agarose gel
3′ AflIII CC substrate = experiment: Reconstituted Exo1- and Mlh1-Pms1-dependent MMR reaction in vitro; type: biochemical
[1] = tested on: end-blocked, mispair-containing DNA; type: binding; settings: 20 nM Msh2-Msh6, 40 nM Mlh1-Pms1, 250 μM ATP, 25 °C, 20 μL/min, 236-bp DNA, Biacore T100
Pms1 = experiment: Interaction of mutant Mlh1 with Pms1 during protein purification; type: binding, S. cerevisiae
supercoiled DNA plasmid = type: biochemical

Substance	Mlh1-Pms1 endonuclease activity (wild-type Mlh1-Pms1; peptide-to-heterodimer molar ratio of 250:1) [%]	Mlh1-Pms1 endonuclease activity (wild-type Mlh1-Pms1; peptide-to-heterodimer molar ratio of 1,000:1) [%]	MMR in vitro (in words) (3′ AflIII CC substrate)	recruitment by Msh2-Msh6, increase in response units [1]	ability to interact with Pms1 (Pms1)	nicking activity relative to wild-type Mlh1-Pms1 (supercoiled DNA plasmid; % of the nicking activity of the wild-type Mlh1-Pms1 protein, RFC-Δ1N and PCNA, ATP, 35 nM Mlh1-Pms1, 30 °C, 30 min, in triplicate) [%]	endonuclease activity (in words) (supercoiled DNA plasmid; in vitro, with PCNA, RFC-Δ1N and ATP)
KAKRQENKLVRIDASQAKITSFLSS [wild-type peptide]	~70	~50					
Mlh1(RADA)-Pms1			defective for MMR	robust increase in the response units	did not observe any defects in the ability of Mlh1(RADA) to interact with Pms1	~10	defective for MMR and endonuclease activity in vitro
Mlh1-Pms1: wild-type S. cerevisiae Mlh1-Pms1 endonuclease heterodimer				robust increase in the response units			
